Data as given in ChEMBL document CHEMBL5291721, “A preclinical secondary pharmacology resource illuminates target-adverse drug reaction associations of marketed drugs” (Nat Commun, 2023).

Assays:
[1] = molecular target: Growth hormone secretagogue receptor type 1 (Homo sapiens, UniProt Q92847)
[2] = molecular target: T1, 5-hydroxytryptamine receptor 1A (Homo sapiens, UniProt P08908); assay type: functional, cell-based
T1 sequence (P08908 whole entry): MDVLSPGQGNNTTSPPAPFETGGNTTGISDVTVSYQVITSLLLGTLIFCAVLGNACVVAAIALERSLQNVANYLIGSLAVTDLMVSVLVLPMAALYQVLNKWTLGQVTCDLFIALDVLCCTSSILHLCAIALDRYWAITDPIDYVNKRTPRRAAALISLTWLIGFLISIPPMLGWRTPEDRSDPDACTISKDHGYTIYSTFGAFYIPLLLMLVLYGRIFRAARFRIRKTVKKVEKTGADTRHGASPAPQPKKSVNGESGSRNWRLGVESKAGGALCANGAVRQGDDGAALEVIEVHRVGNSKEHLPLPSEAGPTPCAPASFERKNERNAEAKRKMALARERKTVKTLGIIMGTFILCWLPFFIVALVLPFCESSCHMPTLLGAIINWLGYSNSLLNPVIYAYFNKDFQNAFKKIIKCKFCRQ

B2 bradykinin receptor = molecular target: T2, B2 bradykinin receptor (Homo sapiens, UniProt P30411)
T2 sequence (P30411 whole entry): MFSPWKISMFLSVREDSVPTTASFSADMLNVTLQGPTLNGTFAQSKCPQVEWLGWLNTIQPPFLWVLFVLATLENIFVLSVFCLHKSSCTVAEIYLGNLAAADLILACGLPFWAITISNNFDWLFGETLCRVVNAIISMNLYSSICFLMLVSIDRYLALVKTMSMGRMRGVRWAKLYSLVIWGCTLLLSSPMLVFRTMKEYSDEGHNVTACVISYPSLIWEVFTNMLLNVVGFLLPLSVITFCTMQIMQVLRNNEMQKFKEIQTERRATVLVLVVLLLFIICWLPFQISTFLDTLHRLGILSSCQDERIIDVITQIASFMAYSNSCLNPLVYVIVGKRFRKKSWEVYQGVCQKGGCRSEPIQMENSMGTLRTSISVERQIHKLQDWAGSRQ

[3] = molecular target: Voltage-gated inwardly rectifying potassium channel KCNH2 (Homo sapiens, UniProt Q12809); assay type: functional
[4] = molecular target: Kappa-type opioid receptor (Homo sapiens, UniProt P41145)
[5] = molecular target: cGMP-inhibited 3',5'-cyclic phosphodiesterase 3A (Homo sapiens, UniProt Q14432); assay type: functional
[6] = molecular target: T3, Alpha-1A adrenergic receptor (Homo sapiens, UniProt P35348); assay type: functional, cell-based
T3 sequence (P35348 whole entry): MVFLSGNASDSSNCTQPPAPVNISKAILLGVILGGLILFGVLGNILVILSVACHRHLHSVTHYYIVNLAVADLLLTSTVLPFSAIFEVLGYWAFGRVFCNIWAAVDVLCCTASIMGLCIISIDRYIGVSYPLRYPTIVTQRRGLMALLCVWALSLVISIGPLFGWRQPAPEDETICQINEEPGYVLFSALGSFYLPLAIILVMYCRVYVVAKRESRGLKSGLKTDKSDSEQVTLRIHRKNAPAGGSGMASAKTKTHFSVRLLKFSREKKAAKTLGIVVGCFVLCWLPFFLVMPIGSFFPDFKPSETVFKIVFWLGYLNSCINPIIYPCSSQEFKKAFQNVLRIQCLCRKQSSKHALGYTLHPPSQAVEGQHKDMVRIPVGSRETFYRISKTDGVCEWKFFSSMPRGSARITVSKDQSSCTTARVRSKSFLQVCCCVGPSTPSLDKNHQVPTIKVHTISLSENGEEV

Histamine H2 receptor = Histamine H2 receptor (Homo sapiens, UniProt P25021); assay type: functional, cell-based
[7] = molecular target: T4, Muscarinic acetylcholine receptor M1 (Homo sapiens, UniProt P11229); assay type: functional
T4 sequence (P11229 whole entry): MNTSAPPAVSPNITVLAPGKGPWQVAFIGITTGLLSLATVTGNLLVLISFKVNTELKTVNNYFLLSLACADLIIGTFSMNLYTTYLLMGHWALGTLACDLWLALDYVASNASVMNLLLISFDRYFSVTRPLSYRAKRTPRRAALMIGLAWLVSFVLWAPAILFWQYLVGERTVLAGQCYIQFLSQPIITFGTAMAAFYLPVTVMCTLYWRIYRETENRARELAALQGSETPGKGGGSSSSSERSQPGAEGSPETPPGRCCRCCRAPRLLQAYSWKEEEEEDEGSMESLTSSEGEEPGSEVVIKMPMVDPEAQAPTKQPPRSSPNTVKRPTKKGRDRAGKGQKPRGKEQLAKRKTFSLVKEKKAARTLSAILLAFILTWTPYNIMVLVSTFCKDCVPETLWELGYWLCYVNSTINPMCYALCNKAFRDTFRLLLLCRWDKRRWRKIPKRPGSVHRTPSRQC

[8] = molecular target: T5, Amine oxidase [flavin-containing] A (Homo sapiens, UniProt P21397); assay type: functional
T5 sequence (P21397 whole entry): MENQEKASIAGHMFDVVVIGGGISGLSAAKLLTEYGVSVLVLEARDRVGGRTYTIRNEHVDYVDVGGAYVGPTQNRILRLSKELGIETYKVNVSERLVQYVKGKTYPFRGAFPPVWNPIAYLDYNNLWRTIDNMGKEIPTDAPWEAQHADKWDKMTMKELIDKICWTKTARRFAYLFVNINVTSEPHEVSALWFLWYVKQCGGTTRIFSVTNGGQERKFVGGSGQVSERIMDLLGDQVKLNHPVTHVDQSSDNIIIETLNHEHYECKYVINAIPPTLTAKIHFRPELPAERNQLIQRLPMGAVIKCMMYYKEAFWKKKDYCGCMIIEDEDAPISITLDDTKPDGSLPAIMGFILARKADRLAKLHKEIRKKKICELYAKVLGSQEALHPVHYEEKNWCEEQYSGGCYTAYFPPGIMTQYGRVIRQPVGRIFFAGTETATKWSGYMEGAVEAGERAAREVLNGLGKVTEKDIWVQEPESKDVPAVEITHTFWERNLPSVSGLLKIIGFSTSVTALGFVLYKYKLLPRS
Further: assay procedure not described here.

cGMP-inhibited 3',5'-cyclic phosphodiesterase 3A, sequence (Q14432 whole entry): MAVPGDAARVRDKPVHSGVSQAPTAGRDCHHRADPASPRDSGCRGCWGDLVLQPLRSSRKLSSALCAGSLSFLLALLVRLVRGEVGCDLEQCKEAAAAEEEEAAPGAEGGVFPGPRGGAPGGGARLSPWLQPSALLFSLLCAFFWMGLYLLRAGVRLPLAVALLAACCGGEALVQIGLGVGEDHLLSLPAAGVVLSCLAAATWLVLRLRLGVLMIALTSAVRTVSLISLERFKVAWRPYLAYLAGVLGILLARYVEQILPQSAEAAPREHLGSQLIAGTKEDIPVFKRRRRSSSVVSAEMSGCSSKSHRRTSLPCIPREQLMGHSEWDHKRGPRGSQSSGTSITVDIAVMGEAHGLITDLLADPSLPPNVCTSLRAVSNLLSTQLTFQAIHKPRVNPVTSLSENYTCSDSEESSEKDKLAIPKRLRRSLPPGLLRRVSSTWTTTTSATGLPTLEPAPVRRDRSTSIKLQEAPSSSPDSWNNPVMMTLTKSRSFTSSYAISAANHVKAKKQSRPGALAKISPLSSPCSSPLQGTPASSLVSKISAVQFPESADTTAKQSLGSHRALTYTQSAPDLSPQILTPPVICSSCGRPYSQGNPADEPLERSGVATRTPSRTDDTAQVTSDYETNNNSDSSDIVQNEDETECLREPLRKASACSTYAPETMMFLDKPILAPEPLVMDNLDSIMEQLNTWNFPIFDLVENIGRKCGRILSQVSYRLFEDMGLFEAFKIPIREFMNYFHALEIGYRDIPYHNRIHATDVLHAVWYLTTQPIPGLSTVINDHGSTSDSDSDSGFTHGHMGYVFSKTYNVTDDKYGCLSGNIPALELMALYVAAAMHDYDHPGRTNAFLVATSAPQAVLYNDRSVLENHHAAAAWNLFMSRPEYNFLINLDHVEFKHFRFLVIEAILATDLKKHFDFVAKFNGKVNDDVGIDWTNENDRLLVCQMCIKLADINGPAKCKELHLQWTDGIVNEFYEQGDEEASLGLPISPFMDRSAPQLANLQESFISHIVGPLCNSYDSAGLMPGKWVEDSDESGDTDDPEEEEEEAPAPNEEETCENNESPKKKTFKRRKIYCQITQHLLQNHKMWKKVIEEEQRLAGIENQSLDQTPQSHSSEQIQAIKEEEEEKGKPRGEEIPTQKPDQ
Voltage-gated inwardly rectifying potassium channel KCNH2, sequence (Q12809 whole entry): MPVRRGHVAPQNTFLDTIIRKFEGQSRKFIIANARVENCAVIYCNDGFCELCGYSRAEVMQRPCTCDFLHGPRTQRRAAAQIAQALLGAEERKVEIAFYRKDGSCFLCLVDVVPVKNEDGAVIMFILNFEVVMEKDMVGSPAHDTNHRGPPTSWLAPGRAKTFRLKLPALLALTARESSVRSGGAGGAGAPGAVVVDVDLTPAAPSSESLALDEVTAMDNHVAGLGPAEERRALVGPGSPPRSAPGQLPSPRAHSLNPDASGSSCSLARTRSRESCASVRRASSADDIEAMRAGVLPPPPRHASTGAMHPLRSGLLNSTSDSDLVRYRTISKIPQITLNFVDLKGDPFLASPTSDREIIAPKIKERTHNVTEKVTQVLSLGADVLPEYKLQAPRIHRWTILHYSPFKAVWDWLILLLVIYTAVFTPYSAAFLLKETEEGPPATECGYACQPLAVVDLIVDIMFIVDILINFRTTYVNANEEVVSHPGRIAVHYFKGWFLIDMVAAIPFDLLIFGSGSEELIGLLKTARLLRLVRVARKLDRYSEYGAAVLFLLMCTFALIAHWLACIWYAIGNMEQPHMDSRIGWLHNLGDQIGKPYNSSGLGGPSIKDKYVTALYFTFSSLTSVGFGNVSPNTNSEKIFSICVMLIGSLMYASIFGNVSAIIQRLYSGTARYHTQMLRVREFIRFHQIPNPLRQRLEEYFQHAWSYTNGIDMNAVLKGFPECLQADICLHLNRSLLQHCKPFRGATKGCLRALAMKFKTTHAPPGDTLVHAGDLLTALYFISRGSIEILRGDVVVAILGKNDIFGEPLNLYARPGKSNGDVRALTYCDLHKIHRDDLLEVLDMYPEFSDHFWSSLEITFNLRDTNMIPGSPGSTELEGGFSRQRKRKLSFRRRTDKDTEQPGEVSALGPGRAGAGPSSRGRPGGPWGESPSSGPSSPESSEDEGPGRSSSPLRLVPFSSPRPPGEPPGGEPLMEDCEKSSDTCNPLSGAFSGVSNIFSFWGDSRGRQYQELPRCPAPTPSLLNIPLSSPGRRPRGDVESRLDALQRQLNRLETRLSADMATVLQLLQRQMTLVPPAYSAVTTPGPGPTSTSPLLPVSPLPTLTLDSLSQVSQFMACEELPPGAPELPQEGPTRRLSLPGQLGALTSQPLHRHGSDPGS
Histamine H2 receptor, sequence (P25021 whole entry): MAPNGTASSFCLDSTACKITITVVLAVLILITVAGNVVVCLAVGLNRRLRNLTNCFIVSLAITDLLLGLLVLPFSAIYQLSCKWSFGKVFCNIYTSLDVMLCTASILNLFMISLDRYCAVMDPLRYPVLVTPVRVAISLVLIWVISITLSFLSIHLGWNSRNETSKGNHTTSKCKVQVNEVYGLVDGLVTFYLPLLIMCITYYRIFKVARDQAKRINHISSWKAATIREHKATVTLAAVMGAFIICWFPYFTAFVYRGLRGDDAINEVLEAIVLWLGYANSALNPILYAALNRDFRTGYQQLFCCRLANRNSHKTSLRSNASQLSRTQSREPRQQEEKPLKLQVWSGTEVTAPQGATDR
Kappa-type opioid receptor, sequence (P41145 whole entry): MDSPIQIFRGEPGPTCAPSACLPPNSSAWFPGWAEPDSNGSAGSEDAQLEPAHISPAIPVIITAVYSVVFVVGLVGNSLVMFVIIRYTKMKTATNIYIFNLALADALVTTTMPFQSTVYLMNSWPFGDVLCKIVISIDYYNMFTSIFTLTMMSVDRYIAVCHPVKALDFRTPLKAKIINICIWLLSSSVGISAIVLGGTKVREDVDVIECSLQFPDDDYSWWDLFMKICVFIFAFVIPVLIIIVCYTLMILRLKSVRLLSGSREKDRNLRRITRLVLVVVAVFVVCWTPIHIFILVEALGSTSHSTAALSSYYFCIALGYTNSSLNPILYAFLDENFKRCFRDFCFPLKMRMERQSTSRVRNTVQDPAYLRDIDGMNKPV
Growth hormone secretagogue receptor type 1, sequence (Q92847 whole entry): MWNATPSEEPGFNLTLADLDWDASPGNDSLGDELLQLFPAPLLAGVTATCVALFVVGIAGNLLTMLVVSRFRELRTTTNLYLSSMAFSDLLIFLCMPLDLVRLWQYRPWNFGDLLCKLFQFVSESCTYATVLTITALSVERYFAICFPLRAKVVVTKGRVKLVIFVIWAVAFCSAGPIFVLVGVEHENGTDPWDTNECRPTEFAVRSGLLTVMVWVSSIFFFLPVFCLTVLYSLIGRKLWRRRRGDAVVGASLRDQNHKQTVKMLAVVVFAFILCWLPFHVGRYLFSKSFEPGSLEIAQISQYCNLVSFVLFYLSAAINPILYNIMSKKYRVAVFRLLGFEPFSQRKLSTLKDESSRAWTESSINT

Row | Molecule | AC50 [1] | AC50 [2] | AC50 (B2 bradykinin receptor) | AC50 ([3]; read-out: AC50) | AC50 [4] | AC50 [5] | AC50 [6] | AC50 (Histamine H2 receptor) | AC50 [7] | AC50 [8] | AC50 ([3]; human, cellular components)
1 | C[C@H]1C[C@@H]2[C@H]([C@@H](O)C[C@@]3(C)[C@H]2CC[C@]3(O)C(=O)COC(=O)CCC(=O)O)[C@@]2(C)C=CC(=O)C=C12 [METHYLPREDNISOLONE HEMISUCCINATE] | > 30 µM | > 30 µM | > 30 µM | > 30 µM | > 30 µM | > 30 µM | > 30 µM | > 30 µM | > 30 µM | > 30 µM | –
2 | Cc1cc(-c2ccccc2)nnc1NCCN1CCOCC1 [MINAPRINE] | > 30 µM | > 10 µM | > 30 µM | 3.44 µM | > 10 µM | > 30 µM | > 30 µM | > 10 µM | > 10 µM | > 10 µM | –
3 | CCCCC(C)(O)C/C=C/[C@H]1[C@H](O)CC(=O)[C@@H]1CCCCCCC(=O)OC (stereo not given in full) [MISOPROSTOL] | > 30 µM | > 30 µM | > 30 µM | > 30 µM | > 30 µM | > 30 µM | > 30 µM | > 30 µM | > 30 µM | > 30 µM | –
4 | CCCCCCC(C)(C)c1cc(O)c2c(c1)OC(C)(C)C1CCC(=O)CC21 (stereo not given) [NABILONE] | > 30 µM | > 30 µM | > 10 µM | > 30 µM | > 30 µM | > 30 µM | > 30 µM | > 30 µM | > 30 µM | > 30 µM | –
5 | C1COC(NC(C2CC2)C2CC2)=N1 [RILMENIDINE] | > 30 µM | > 30 µM | > 30 µM | > 30 µM | 1.72 µM | > 30 µM | 3.4 µM | > 10 µM | > 10 µM | > 10 µM | –
6 | Cc1c(Cl)cccc1Nc1ccccc1C(=O)O [TOLFENAMIC ACID] | > 30 µM | 22 µM | > 30 µM | > 30 µM | > 30 µM | > 30 µM | > 30 µM | > 30 µM | > 30 µM | > 30 µM | –
7 | CN1CCN(C(=O)OC2c3nccnc3C(=O)N2c2ccc(Cl)cn2)CC1 (stereo not given) [ZOPICLONE] | > 30 µM | > 10 µM | > 30 µM | > 30 µM | > 10 µM | > 30 µM | > 30 µM | > 10 µM | > 30 µM | > 30 µM | –
8 | TOCOFERSOLAN | > 30 µM | > 30 µM | > 30 µM | – | > 30 µM | > 10 µM | > 30 µM | > 30 µM | > 30 µM | > 30 µM | > 30 µM
